Source: US20250122174A1 (Shenzhen Yuanli Shenwan Innovative Medicine Co., Ltd., priority 2022, published 2025)

The compounds below were run against HPK1 (Homo sapiens (Human), UniProt Q92918) (assay: HPK1 Inhibition Assay (ADP-Glo kinase assay)). Conditions: ATP 10 μM.
Type: biochemical
Summary of the method: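 ADP-Glo luminescence read-out after 1 h room-temperature kinase reaction with 10 μM ATP and 0.1 μg/ml MBP. Recombinant human HPK1 at 7.5 ng/μl; buffer 40 mM Tris pH 7.5, 20 mM MgCl2. Compounds serially diluted 5-fold over 10 points from 10 mM DMSO stock.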

Sequence of HPK1 (Q92918 1-346 limits assumed): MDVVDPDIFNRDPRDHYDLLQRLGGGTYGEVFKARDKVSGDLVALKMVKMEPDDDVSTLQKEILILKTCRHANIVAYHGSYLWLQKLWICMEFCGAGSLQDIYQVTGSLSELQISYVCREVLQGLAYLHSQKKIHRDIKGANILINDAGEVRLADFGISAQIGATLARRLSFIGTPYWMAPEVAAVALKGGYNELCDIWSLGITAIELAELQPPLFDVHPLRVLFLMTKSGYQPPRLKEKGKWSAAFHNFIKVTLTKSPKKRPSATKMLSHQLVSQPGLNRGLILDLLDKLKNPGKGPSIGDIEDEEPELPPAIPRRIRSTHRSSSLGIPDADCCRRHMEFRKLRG

IC50, < 100 nM:
[2H]C([2H])([2H])C(n1ncc2c(N3C[C@@H](C)[C@@H](N)C3)c(NC(=O)c3ccc(=O)n(-c4c(F)cccc4F)n3)ccc21)C([2H])([2H])[2H] [Example 278, N-(4-((3R,4R)-3-amino-4-methylpyrrolidin-1-yl)-1-(propan-2-yl-1,1,1,3,3,3-d6)-1H-indazol-5-yl)-1-(2,6-difluorophenyl)-6-oxo-1,6-dihydropyridazine-3-carboxamide]
[2H]C([2H])([2H])C(n1ncc2c(N3C[C@H](N)C(C)(C)C3)c(NC(=O)c3ccc(=O)n(-c4c(F)cccc4F)n3)ccc21)C([2H])([2H])[2H] [Example 279, (R)-N-(4-(4-amino-3,3-dimethylpyrrolidin-1-yl)-1-(propan-2-yl-1,1,1,3,3,3-d6)-1H-indazol-5-yl)-1-(2,6-difluorophenyl)-6-oxo-1,6-dihydropyridazine-3-carboxamide]
[2H]C([2H])([2H])C(n1ncc2c(N3C[C@@H](N)C(C)(C)C3)c(NC(=O)c3ccc(=O)n(-c4c(F)cccc4F)n3)ccc21)C([2H])([2H])[2H] [Example 280, (S)-N-(4-(4-amino-3,3-dimethylpyrrolidin-1-yl)-1-(propan-2-yl-1,1,1,3,3,3-d6)-1H-indazol-5-yl)-1-(2,6-difluorophenyl)-6-oxo-1,6-dihydropyridazine-3-carboxamide]
[2H]C([2H])([2H])C([2H])(n1ncc2c(N3C[C@H](N)C(C)(C)C3)c(NC(=O)c3ccc(=O)n(-c4c(F)cccc4F)n3)ccc21)C([2H])([2H])[2H] [Example 281, (R)-N-(4-(4-amino-3,3-dimethylpyrrolidin-1-yl)-1-(propan-2-yl-d7)-1H-indazol-5-yl)-1-(2,6-difluorophenyl)-6-oxo-1,6-dihydropyridazine-3-carboxamide]
[2H]C([2H])([2H])C([2H])(n1ncc2c(N3C[C@@H](N)C(C)(C)C3)c(NC(=O)c3ccc(=O)n(-c4c(F)cccc4F)n3)ccc21)C([2H])([2H])[2H] [Example 282, (S)-N-(4-(4-amino-3,3-dimethylpyrrolidin-1-yl)-1-(propan-2-yl-d7)-1H-indaozl-5-yl)-1-(2,6-difluorophenyl)-6-oxo-1,6-dihydropyridazine-3-carboxamide]
COCCn1ncc2c(N3C[C@@H](C)[C@@H](N)C3)c(NC(=O)c3ccc(=O)n(-c4c(F)cccc4F)n3)ccc21 [Example 283, N-(4-((3R,4R)-3-amino-4-methylpyrrolidin-1-yl)-1-(2-methoxyethyl)-1H-indazol-5-yl)-1-(2,6-difluorophenyl)-6-oxo-1,6-dihydropyridazine-3-carboxamide]
COCCn1ncc2c(N3CCC(N)CC3)c(NC(=O)c3ccc(=O)n(-c4c(F)cccc4F)n3)cc(F)c21 [Example 284, N-(4-(4-aminopiperidin-1-yl)-7-fluoro-1-(2-methoxyethyl)-1H-indazol-5-yl)-1-(2,6-difluorophenyl)-6-oxo-1,6-dihydropyridazine-3-carboxamide]
COCCn1ncc2c(N3CC[C@@H](N)C3)c(NC(=O)c3ccc(=O)n(-c4c(F)cccc4F)n3)ccc21 [Example 285, (R)-N-(4-(3-aminopyrrolidin-1-yl)-1-(2-methoxyethyl)-1H-indazol-5-yl)-1-(2,6-difluorophenyl)-6-oxo-1,6-dihydropyridazine-3-carboxamide]
COCCn1ncc2c(N3CCC[C@@H](N)C3)c(NC(=O)c3ccc(=O)n(-c4c(F)cccc4F)n3)cc(F)c21 [Example 286, (R)-N-(4-(3-aminopiperidin-1-yl)-7-fluoro-1-(2-methoxyethyl)-1H-indazol-5-yl)-1-(2,6-difluorophenyl)-6-oxo-1,6-dihydropyridazine-3-carboxamide]
N[C@@H]1CCN(c2c(NC(=O)c3ccc(=O)n(-c4c(F)cccc4F)n3)ccc3c2cnn3C2CCCC2)C1 [Example 287, (R)-N-(4-(3-aminopyrrolidin-1-yl)-1-cyclopentyl-1H-indazol-5-yl)-1-(2,6-difluorophenyl)-6-oxo-1,6-dihydropyridazine-3-carboxamide]
C[C@@H]1CN(c2c(NC(=O)c3ccc(=O)n(-c4c(F)cccc4F)n3)ccc3c2cnn3C2CCCC2)C[C@@H]1N [Example 288, N-(4-((3R,4R)-3-amino-4-methylpyrrolidin-1-yl)-1-cyclopentyl-1H-indazol-5-yl)-1-(2,6-difluorophenyl)-6-oxo-1,6-dihydropyridazine-3-carboxamide34]
CCn1ncc2c(N3CC[C@@H](N)C3)c(NC(=O)c3ccc(=O)n(-c4c(F)cccc4F)n3)cc(F)c21 [Example 289, (R)-N-(4-(3-aminopyrrolidin-1-yl)-1-ethyl-7-fluoro-1H-indazol-5-yl)-1-(2,6-difluorophenyl)-6-oxo-1,6-dihydropyridazine-3-carboxamide]
N[C@@H]1CCN(c2c(NC(=O)c3ccc(=O)n(-c4c(F)cccc4F)n3)ccc3c2cnn3CC(F)(F)F)C1 [Example 290, (R)-N-(4-(3-aminopyrrolidin-1-yl)-1-(2,2,2-trifluoroethyl)-1H-indazol-5-yl)-1-(2,6-difluorophenyl)-6-oxo-1,6-dihydropyridazine-3-carboxamide]
C[C@@H]1CN(c2c(NC(=O)c3ccc(=O)n(-c4c(F)cccc4F)n3)ccc3c2cnn3CC(F)(F)F)C[C@@H]1N [Example 291, N-(4-((3R,4R)-3-amino-4-methylpyrrolidin-1-yl)-1-(2,2,2-trifluoroethyl)-1H-indazol-5-yl)-1-(2,6-difluorophenyl)-6-oxo-1,6-dihydropyridazine-3-carboxamide]
CCn1ncc2c(N3CC[C@@H](N)C3)c(NC(=O)c3ccc(=O)n(-c4c(F)cccc4F)n3)ccc21 [Example 292, (R)-N-(4-(3-aminopyrrolidin-1-yl)-1-ethyl-1H-indazol-5-yl)-1-(2,6-difluorophenyl)-6-oxo-1,6-dihydropyridazine-3-carboxamide]
COCCn1ncc2c(N3CC[C@@H](N)C3)c(NC(=O)c3ccc(=O)n(-c4c(F)cccc4F)n3)cc(F)c21 [Example 293, (R)-N-(4-(3-aminopyrrolidin-1-yl)-7-fluoro-1-(2-methoxyethyl)-1H-indazol-5-yl)-1-(2,6-difluorophenyl)-6-oxo-1,6-dihydropyridazine-3-carboxamide]
CC(C)Cn1ncc2c(N3CC[C@@H](N)C3)c(NC(=O)c3ccc(=O)n(-c4c(F)cccc4F)n3)ccc21 [Example 294, (R)-N-(4-(3-aminopyrrolidin-1-yl)-1-isobutyl-1H-indazol-5-yl)-1-(2,6-difluorophenyl)-6-oxo-1,6-dihydropyridazine-3-carboxamide]
N[C@@H]1CCN(c2c(NC(=O)c3ccc(=O)n(-c4c(F)cccc4F)n3)ccc3c2cnn3CC2CC2)C1 [Example 295, (R)-N-(4-(3-aminopyrrolidin-1-yl)-1-(cyclopropylmethyl)-1H-indazol-5-yl)-1-(2,6-difluorophenyl)-6-oxo-1,6-dihydropyridazine-3-carboxamide]
C[C@@H]1CN(c2c(NC(=O)c3ccc(=O)n(-c4c(F)cccc4F)n3)ccc3c2cnn3C2CCC2)C[C@@H]1N [Example 296, N-(4-((3R,4R)-3-amino-4-methylpyrrolidin-1-yl)-1-cyclobutyl-1H-indazol-5-yl)-1-(2,6-difluorophenyl)-6-oxo-1,6-dihydropyridazine-3-carboxamide]
C[C@@H]1CN(c2c(NC(=O)c3ccc(=O)n(-c4c(F)cccc4F)n3)ccc3c2cnn3C2CCCCC2)C[C@@H]1N [Example 297, N-(4-((3R,4R)-3-amino-4-methylpyrrolidin-1-yl)-1-cyclohexyl-1H-indazol-5-yl)-1-(2,6-difluorophenyl)-6-oxo-1,6-dihydropyridazine-3-carboxamide]
C[C@@H]1CN(c2c(NC(=O)c3ccc(=O)n(-c4c(F)cccc4F)n3)ccc3c2cnn3C2CC2)C[C@@H]1N [Example 298, N-[4-[(3R,4R)-3-amino-4-methyl-pyrrolidin-1-yl]-1-cyclopropyl-indazol-5-yl]-1-(2,6-difluorophenyl)-6-oxo-pyridazine-3-carboxamide]
C[C@H]1CN(c2c(NC(=O)c3ccc(=O)n(-c4c(F)cccc4F)n3)ccc3c2cnn3C2CC2)C[C@@H]1N [Example 299, N-(4-((3R,4S)-3-amino-4-methylpyrrolidin-1-yl)-1-cyclopropyl-1H-indazol-5-yl)-1-(2,6-difluorophenyl)-6-oxo-1,6-dihydropyridazine-3-carboxamide]
N[C@H]1CN(c2c(NC(=O)c3ccc(=O)n(-c4c(F)cccc4F)n3)ccc3c2cnn3C2CC2)CC12CC2 [Example 300, (R)-N-(4-(7-amino-5-azaspiro[2.4]heptan-5-yl)-1-cyclopropyl-1H-indazol-5-yl)-1-(2,6-difluorophenyl)-6-oxo-1,6-dihydropyridazine-3-carboxamide]
N[C@@H]1CCN(c2c(NC(=O)c3ccc(=O)n(-c4c(F)cccc4F)n3)ccc3c2cnn3C2CC2)C1 [Example 301, (R)-N-(4-(3-aminopyrrolidin-1-yl)-1-cyclopropyl-1H-indazol-5-yl)-1-(2,6-difluorophenyl)-6-oxo-1,6-dihydropyridazine-3-carboxamide]
CC(C)(C)n1ncc2c(N3C[C@H](N)C4(CC4)C3)c(NC(=O)c3ccc(=O)n(-c4c(F)cccc4F)n3)ccc21 [Example 302, N-[4-[(7R)-7-amino-5-azaspiro[2.4]heptan-5-yl]-1-tert-butyl-indazol-5-yl]-1-(2,6-difluorophenyl)-6-oxo-pyridazine-3-carboxamide]
